Assay results: US11034671B2, “Apoptosis signal-regulating kinase inhibitors and uses thereof” (SICHUAN HAISCO PHARMACEUTICAL CO., LTD., priority 2017, dated 2021)

How the values were obtained:
[1] = target: ASK1 (Homo sapiens (Human), UniProt Q99683); assay: ASK1 KINOMEscan assay (biochemical Kd), competition binding; settings: DNA-tagged ASK1 kinase, 11-point 3-fold dilution
Experimental: The binding of compounds to ASK1 were determined using DiscoverX's proprietary technology. […] The assay is performed by combining three components: DNA-tagged ASK1 kinase; immobilized ligand; and a test compound. The ability of the test compound to compete with the immobilized ligand is measured via quantitative PCR of the DNA tag. […] The liganded beads were blocked with excess biotin and washed with blocking buffer (SeaBlock (Pierce), 1% BSA, 0.05% Tween 20, 1 mM DTT) to remove unbound ligand and to reduce nonspecific binding. […] Kds were determined using an 11-point 3-fold compound dilution series with three DMSO control points. […] The compounds were then diluted directly into the assays such that the final concentration of DMSO was 0.9%. All reactions were performed in polypropylene 384-well plate. […] The kinase concentration in the eluates was measured by qPCR. Most Kds were determined using a compound top concentration=30,000 nM. […] Binding constants (Kds) were calculated with a standard dose-response curve using the Hill equation: Response=Background+{(Signal−Background)/[1+(Kd^Hill Slope/Dose^Hill Slope)]}, the Hill Slope was set to −1, and curves were fitted using a non-linear least square fit with the Levenberg-Marquardt algorithm.

[2] = test system: phospho-p38 (downstream target of ASK1 activation) in HK-2 cells; assay: HK-2 phospho-p38 HTRF assay (cellular IC50); type: cell-based; settings: Homo sapiens, compound 2 h then 1 mM H2O2 30 min, phospho-T180/Y182 p38 HTRF, read-out: p38 MAPK IC50
Experimental: Monolayers of HK-2 cells were grown on 384-well plates at 8000 cells/well and incubated at 37° C. with 5% CO2/95% air in keratinocyte serum-free medium (Thermofisher, Carlsbad, Calif.) supplemented with recombinant human EGF (5 ng/mL) and bovine pituitary extract (50 μg/mL). 24 hours after seeding, cells were treated with test compounds for various concentrations for 2 hours and followed by 30 min treatment of H2O2 with final concentration of 1 mM. At the end of cell treatment, the cell medium was removed, and the cells were washed once with ice-cold PBS and subjected to measure the level of phosphor-p38 (downstream target of ASK1 activation) using Cisbio's P38 phospho-T180/Y182 HTRF kit from Cisbio (Cat. 64P38PEG). […] The compounds were then diluted directly into the assays such that the final concentration of DMSO was 0.4%. […] IC50 were calculated with a log (dose)-response curve using four parameter variable nonlinear fitting, with log(dose) in X-axis and (Em665/Em620×10000) ratio as Y-axis.

ASK1, sequence (Q99683 whole entry): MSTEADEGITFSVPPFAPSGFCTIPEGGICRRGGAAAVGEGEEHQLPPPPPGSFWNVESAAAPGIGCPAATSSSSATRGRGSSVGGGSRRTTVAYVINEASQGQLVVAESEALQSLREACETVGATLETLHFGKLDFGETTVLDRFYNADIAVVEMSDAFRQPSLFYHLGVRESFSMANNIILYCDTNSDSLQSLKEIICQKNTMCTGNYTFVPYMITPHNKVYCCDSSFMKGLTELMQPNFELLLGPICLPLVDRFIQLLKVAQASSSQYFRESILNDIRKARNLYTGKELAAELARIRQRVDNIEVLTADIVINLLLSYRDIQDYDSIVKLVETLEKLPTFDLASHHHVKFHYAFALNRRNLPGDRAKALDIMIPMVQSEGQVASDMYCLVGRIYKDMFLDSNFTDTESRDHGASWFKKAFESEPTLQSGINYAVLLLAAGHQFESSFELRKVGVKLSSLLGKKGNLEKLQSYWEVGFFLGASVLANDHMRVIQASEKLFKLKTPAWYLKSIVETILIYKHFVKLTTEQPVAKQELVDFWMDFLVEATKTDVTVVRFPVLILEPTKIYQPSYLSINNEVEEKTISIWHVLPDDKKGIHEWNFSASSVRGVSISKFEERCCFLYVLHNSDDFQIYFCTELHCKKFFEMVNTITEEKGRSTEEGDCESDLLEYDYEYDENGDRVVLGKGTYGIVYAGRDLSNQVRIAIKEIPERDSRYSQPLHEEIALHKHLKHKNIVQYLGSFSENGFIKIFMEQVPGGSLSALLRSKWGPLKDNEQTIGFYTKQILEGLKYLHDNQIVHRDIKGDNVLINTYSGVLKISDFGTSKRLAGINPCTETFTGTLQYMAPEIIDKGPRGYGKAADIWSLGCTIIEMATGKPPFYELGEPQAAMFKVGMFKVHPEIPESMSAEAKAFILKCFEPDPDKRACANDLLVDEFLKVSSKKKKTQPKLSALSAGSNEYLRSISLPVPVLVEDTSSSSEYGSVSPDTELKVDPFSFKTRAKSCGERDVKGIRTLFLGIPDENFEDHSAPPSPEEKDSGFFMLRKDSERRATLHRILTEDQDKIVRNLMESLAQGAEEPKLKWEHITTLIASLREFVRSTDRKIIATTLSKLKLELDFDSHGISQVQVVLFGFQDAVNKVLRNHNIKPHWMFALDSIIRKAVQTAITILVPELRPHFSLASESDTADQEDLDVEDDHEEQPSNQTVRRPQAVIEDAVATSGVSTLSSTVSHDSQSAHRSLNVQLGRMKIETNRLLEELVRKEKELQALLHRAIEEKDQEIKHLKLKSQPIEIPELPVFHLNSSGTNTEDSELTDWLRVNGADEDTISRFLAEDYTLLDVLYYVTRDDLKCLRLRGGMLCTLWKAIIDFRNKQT

SMILES | Kd [1] | IC50 [2]
O=C1Nc2cccc(n2)-c2nncn2CCCCCOc2ccc(-c3ccc(C4CC4)nc3)cc21 [Example 19] | 10 to 100 nM | 100 to 1000 nM
O=C1Nc2cccc(n2)-c2nncn2CCCCOc2ccc(-n3cnc(C4CC4)c3)cc21 [Example 22] | < 10 nM | < 100 nM
O=C1Nc2cccc(n2)-c2nncn2CCCCOc2ccc(-c3ccc(C4CC4)nc3)cc21 [Example 23] | < 10 nM | 100 to 1000 nM
Cc1ccc(-c2ccc3c(c2)C(=O)Nc2cccc(n2)-c2nncn2CCCCO3)cn1 [Example 24] | < 10 nM | < 100 nM
CC1(C)Cc2cc3c(cc2O1)C(=O)Nc1cccc(n1)-c1nncn1CCCCO3 [Example 30] | < 10 nM | < 100 nM
O=C1Nc2cccc(n2)-c2nncn2CCCOc2ccc(-c3ccc(C4CC4)nc3)cc21 [Example 37] | < 10 nM | < 100 nM
O=C1Nc2cccc(n2)-c2nncn2CCCCOc2ccc(-c3ccccc3)cc21 [Example 38] | < 10 nM | < 100 nM
O=C1Nc2cccc(n2)-c2nncn2CCCCOc2ccc(-c3ccc(F)nc3)cc21 [Example 39] | < 10 nM | < 100 nM
O=C1Nc2cccc(n2)-c2nncn2CCCCOc2ccc(-c3ccc(C(F)(F)F)nc3)cc21 [Example 40] | < 10 nM | < 100 nM
O=C1Nc2cccc(n2)-c2nncn2CCCCOc2ccc(-c3ccsc3)cc21 [Example 42] | < 10 nM | 100 to 1000 nM
O=C1Nc2cccc(n2)-c2nncn2CCCCOc2ccc(N3CCOCC3)cc21 [Example 43] |  | < 100 nM
O=C1Nc2cccc(n2)-c2nncn2CCCCOc2ccc(C3CC3)cc21 [Example 46] | < 10 nM | 100 to 1000 nM
CCc1ccc(-c2ccc3c(c2)C(=O)Nc2cccc(n2)-c2nncn2CCCCO3)cn1 [Example 47] | < 10 nM | < 100 nM
Cn1cc(-c2ccc3c(c2)C(=O)Nc2cccc(n2)-c2nncn2CCCCO3)cn1 [Example 48] |  | < 100 nM
CC1CCCOc2ccc(-c3ccc(C4CC4)nc3)cc2C(=O)Nc2cccc(n2)-c2nncn21 (stereo not drawn) [Example 50] | < 10 nM | < 100 nM
O=C1Nc2cccc(n2)-c2nncn2CCCCOc2ccc(-c3ccc(C(F)F)nc3)cc21 [Example 52] | < 10 nM | < 100 nM
O=C1Nc2cccc(n2)-c2nncn2CCCCOc2ccc(-c3ccc(Cl)nc3)cc21 [Example 54] | < 10 nM | < 100 nM
Cc1ccc(-c2ccc3c(c2)C(=O)Nc2cccc(n2)-c2nncn2C(C)CCCO3)cn1 (stereo not drawn) [Example 56] | < 10 nM | < 100 nM
Cc1ccc(-c2ccc3c(c2)C(=O)Nc2cccc(n2)-c2nncn2CCCO3)cn1 [Example 60] | < 10 nM | 
Cc1cc2c(cc1-n1cnc(C3CC3)c1)C(=O)Nc1cccc(n1)-c1nncn1CCCCO2 [Example 61] | < 10 nM | < 100 nM
N#Cc1ccc(-c2ccc3c(c2)C(=O)Nc2cccc(n2)-c2nncn2CCCCO3)cn1 [Example 63] | < 10 nM | 100 to 1000 nM

SMILES | Kd [1] | IC50 [2]
Cc1ccc(-c2cc3c(cc2F)OCCCCn2cnnc2-c2cccc(n2)NC3=O)cn1 [Example 64] | 100 to 1000 nM | 
Cc1cc2c(cc1-c1ccc(C3CC3)nc1)C(=O)Nc1cccc(n1)-c1nncn1CCCCO2 [Example 65] | < 10 nM | 
O=C1Nc2cccc(n2)-c2nncn2CCCOc2ccc(-n3cnc(C4CC4)c3)cc21 [Example 66] | < 10 nM | 100 to 1000 nM
Cc1ccc(-c2ccc3c(c2)C(=O)Nc2cccc(n2)-c2nncn2C(C)CCO3)cn1 (stereo not drawn) [Example 67] | < 10 nM | < 100 nM
O=C1Nc2cccc(n2)-c2nncn2CCCCOc2cc(F)c(-c3ccc(C4CC4)nc3)cc21 [Example 68] | < 10 nM | 
Cc1ccc(-c2ccc3c(c2)C(=O)Nc2cccc(n2)-c2nncn2C2CC(CO3)C2)cn1 [Example 69] |  | < 100 nM
Cc1ccc(-c2ccc3c(c2)C(=O)Nc2cccc(n2)-c2nncn2[C@H]2C[C@@H](CO3)C2)cn1 [Example 69] | < 10 nM | 
Cc1ccc(-c2ccc3c(c2)C(=O)Nc2cccc(n2)-c2nncn2CCCOC3)cn1 [Example 70] | < 10 nM | < 100 nM
Cc1ccc(-c2ccc3c(c2)C(=O)Nc2cccc(n2)-c2nncn2C2CCC(CC2)O3)cn1 [Example 71] |  | < 100 nM
Cc1ccc(-c2ccc3c(c2)C(=O)Nc2cccc(n2)-c2nncn2[C@H]2CC[C@H](CC2)O3)cn1 [Example 71] | < 10 nM | 
Cc1ccc(-c2ccc3c(c2)C(=O)Nc2cccc(n2)-c2nncn2CCO3)cn1 [Example 72] | > 1000 nM | 
Cc1ncc(-c2ccc3c(c2)C(=O)Nc2cccc(n2)-c2nncn2CCCCO3)cn1 [Example 73] | < 10 nM | 
Cc1ncc(-c2ccc3c(c2)C(=O)Nc2cccc(n2)-c2nncn2CCCCO3)cc1Cl [Example 75] | 10 to 100 nM | 
Cc1ccc(-c2ccc3c(c2)C(=O)Nc2cccc(n2)-c2nncn2C[C@H]2CC2CO3)cn1 (stereo partly drawn) [Example 77] | < 10 nM | 
CC(F)(F)c1ccc(-c2ccc3c(c2)C(=O)Nc2cccc(n2)-c2nncn2CCCCO3)cn1 [Example 78] | < 10 nM | 
O=C1Nc2cccc(n2)-c2nncn2CCCOc2ccc(-c3ccc(C(F)F)nc3)cc21 [Example 79] | 10 to 100 nM | 
Cc1ccc(-c2ccc3c(c2)C(=O)Nc2cccc(n2)-c2nncn2CC(C)CCO3)cn1 (stereo not drawn) [Example 80] | < 10 nM | 
Cc1ccc(-c2ccc3c(c2)C(=O)Nc2cccc(n2)-c2nncn2C[C@@H]2CC2CO3)cn1 (stereo partly drawn) [Example 81] | < 10 nM | 
O=C1Nc2cccc(n2)-c2nncn2CCCOCc2ccc(-c3ccc(C(F)F)nc3)cc21 [Example 82] | < 10 nM | 
CC1CCOc2ccc(-c3ccc(C(F)F)nc3)cc2C(=O)Nc2cccc(n2)-c2nncn21 (stereo not drawn) [Example 83] | > 1000 nM | 
O=C1Nc2cccc(n2)-c2nncn2[C@H]2CC[C@H](CC2)Oc2ccc(-c3ccc(C(F)F)nc3)cc21 [Example 84] | < 10 nM | 

SMILES | Kd [1] | IC50 [2]
O=C1Nc2cccc(n2)-c2nncn2[C@H]2CCC(C2)Oc2ccc(-c3ccc(C(F)F)nc3)cc21 [Example 86] | < 10 nM | 
O=C1Nc2cccc(n2)-c2nncn2CCCCOc2ccc(-c3ccc(CF)nc3)cc21 [Example 87] | < 10 nM | 
Cc1ccc(-c2ccc3c(c2)C(=O)Nc2cccc(n2)-c2nncn2[C@@H](C)CCCO3)cn1 [Example 88] | < 10 nM | 
Cc1ccc(-c2ccc3c(c2)C(=O)Nc2cccc(n2)-c2nncn2[C@H](C)CCCO3)cn1 [Example 89] | < 10 nM | 
O=C1Nc2cccc(n2)-c2nncn2CCCOc2ccc(-c3ccc(C(F)F)nc3)cc21 [Example 90] | > 1000 nM | 
Cc1ccc(-c2ccc3c(c2)C(=O)Nc2cccc(n2)-c2nncn2CCCS3)cn1 [Example 91] | > 1000 nM | 
O=C1Nc2cccc(n2)-c2nncn2C2CC(C2)Oc2ccc(-c3ccc(C(F)F)nc3)cc21 [Example 93] | 100 to 1000 nM | 
COc1ccc2c(c1)C(=O)Nc1cccc(n1)-c1nncn1CC=CC2 [Example 94] | > 1000 nM | 
O=C1Nc2cccc(n2)-c2nncn2CCCOCc2ccc(-c3ccc(C4CC4)nc3)cc21 [Example 95] | < 10 nM | 
N#Cc1ccc2c(c1)OCCCCn1cnnc1-c1cccc(n1)NC2=O [Example 96] | 10 to 100 nM | 
O=C1Nc2cccc(n2)-c2nncn2CCCCOc2ccc(-c3cnc(F)c(F)c3)cc21 [Example 98] | < 10 nM | 
O=C1Nc2cccc(n2)-c2nncn2CCCCOc2ccc(-c3cnc(F)c(Cl)c3)cc21 [Example 99] | < 10 nM | 
O=C1Nc2cccc(n2)-c2nncn2CCCOCc2ccc(-c3ccc(CF)nc3)cc21 [Example 100] | < 10 nM | 
O=C1Nc2cccc(n2)-c2nncn2CCCOCc2ccc(-c3ccc(C(F)(F)F)nc3)cc21 [Example 101] | 10 to 100 nM | 
CCc1ccc(-c2ccc3c(c2)C(=O)Nc2cccc(n2)-c2nncn2CCCOC3)cn1 [Example 102] | < 10 nM | 
O=C1Nc2cccc(n2)-c2nncn2CCCOCc2ccc(-n3cnc(C4CC4)c3)cc21 [Example 103] | < 10 nM | 
Cc1ccc(-c2ccc3c(c2)C(=O)Nc2cccc(n2)-c2nncn2CC[C@@H](C)CO3)cn1 [Example 104] | < 10 nM | 
O=C1Nc2cccc(n2)-c2nncn2CCCOCc2ccc(-c3cnc(F)c(Cl)c3)cc21 [Example 106] | 10 to 100 nM | 
O=C1Nc2cccc(n2)-c2nncn2CCCOCc2ccc(-c3cnc(F)c(F)c3)cc21 [Example 107] | 10 to 100 nM | 
Cc1c(F)c(F)cc2c1C(=O)Nc1cccc(n1)-c1nncn1CCCCO2 [compound 26] | 100 to 1000 nM | 
CCc1ccc(-c2ccc3c(c2)C(=O)Nc2cccc(n2)-c2nncn2CCCS3)cn1 [compound 92] | < 10 nM | 
